Source: ChEMBL document CHEMBL4387765, “Rational design, molecular docking and synthesis of novel homopiperazine linked imidazo[1,2-a]pyrimidine derivatives as potent cytotoxic and antimicrobial agents” (Bioorg Med Chem Lett, 2019)
pIC50: −log10 of the molar value. ≈ marks a conversion by molar mass, not a printed value.

Key:
SK-OV-3 = assay: Cytotoxicity against human SKOV3 cells assessed as reduction in cell growth measured after 48 hrs by sulforhodamine B assay; type: functional, cell-based; details: SK-OV-3, 48 h
DU-145 [1] = assay: Cytotoxicity against human DU145 cells assessed as reduction in cell growth measured after 48 hrs by sulforhodamine B assay; type: functional, cell-based; details: DU-145, 48 h
HeLa [2] = assay: Cytotoxicity against human HeLa cells assessed as reduction in cell growth measured after 48 hrs by sulforhodamine B assay; type: functional, cell-based
A549 = assay: Cytotoxicity against human A549 cells assessed as reduction in cell growth measured after 48 hrs by sulforhodamine B assay; type: functional, cell-based; details: A549, 48 h
Bacillus subtilis = assay: Antibacterial activity against Bacillus subtilis MTCC 441 after 24 hrs by serial dilution method; type: functional; details: MTCC 441, 24 h
Priestia megaterium = assay: Antibacterial activity against Bacillus megaterium MTCC 428 after 24 hrs by serial dilution method; type: functional; details: MTCC 428, 24 h
Escherichia coli = assay: Antibacterial activity against Escherichia coli MTCC 443 after 24 hrs by serial dilution method; type: functional
Pseudomonas sp. = assay: Antibacterial activity against Pseudomonas sp. 2496 after 24 hrs by serial dilution method; type: functional
Candida albicans = assay: Antifungal activity against Candida albicans MTCC 227 after 72 hrs by serial dilution method; type: functional; details: MTCC 227, 72 h
DU-145 [3] = assay: Potency index, ratio of etoposide IC50 to test compound IC50 for human DU145 cells; type: functional
HeLa [4] = assay: Potency index, ratio of etoposide IC50 to test compound IC50 for human HeLa cells; type: functional

| Molecule | pIC50 (SK-OV-3) | pIC50 (DU-145 [1]) | pIC50 (HeLa [2]) | pIC50 (A549) | MIC (Bacillus subtilis) [µg/mL] | MIC (Priestia megaterium) [µg/mL] | MIC (Escherichia coli; MTCC 443, 24 h) [µg/mL] | MIC (Pseudomonas sp.; Pseudomonas sp., 2496, 24 h) [µg/mL] | MIC (Candida albicans) [µg/mL] | Ratio IC50 (DU-145 [3]) | Ratio IC50 (HeLa [4]) | MIC (Escherichia coli) [µg/mL] | MIC (Pseudomonas sp.) [µg/mL] |
| --- | --- | --- | --- | --- | --- | --- | --- | --- | --- | --- | --- | --- | --- |
| COc1cccc(S(=O)(=O)N2CCCN(c3ccn4cc(-c5ccc(F)cc5)nc4n3)CC2)c1 | 3.64 | 5.20 | 5.18 | 5.38 | 84.8 (≈ 176 µM) | 84.4 (≈ 175 µM) | 33.8 (≈ 70.2 µM) | 22.1 (≈ 45.9 µM) | > 100 | 1.57 | 1.13 |  |  |
| Cc1ccc(S(=O)(=O)N2CCCN(c3ccn4cc(-c5ccc(F)cc5)nc4n3)CC2)cc1[N+](=O)[O-] | < 3.52 | 4.77 | < 3.52 | < 3.52 | 34.2 (≈ 67 µM) | 58.8 (≈ 115 µM) | 4.2 (≈ 8.23 µM) | 8.6 (≈ 16.8 µM) | 81.6 (≈ 160 µM) |  |  |  |  |
| O=C(c1ccc(Cl)cc1)N1CCCN(c2ccn3cc(-c4ccc(F)cc4)nc3n2)CC1 | < 3.52 | 4.82 | 5.07 | 3.96 | 58.6 (≈ 130 µM) | 58.6 (≈ 130 µM) | 88.2 (≈ 196 µM) | > 100 | > 100 |  |  |  |  |
| GENTAMICIN |  |  |  |  |  |  |  |  |  |  |  | 3 | 6 |
| CS(=O)(=O)N1CCCN(c2ccn3cc(-c4ccc(F)cc4)nc3n2)CC1 | < 3.52 | < 3.52 | < 3.52 | 5.08 | 28.7 (≈ 73.7 µM) | 26.4 (≈ 67.8 µM) | 18.4 (≈ 47.2 µM) | 34.6 (≈ 88.8 µM) | 38.7 (≈ 99.4 µM) |  |  |  |  |
| COC(=O)N1CCCN(c2ccn3cc(-c4ccc(F)cc4)nc3n2)CC1 | 4.41 | < 3.52 | 3.58 | 5.10 | 35.8 (≈ 96.9 µM) | 47.2 (≈ 128 µM) | 7.8 (≈ 21.1 µM) | 18.6 (≈ 50.4 µM) | 81.6 (≈ 221 µM) |  |  |  |  |
| CC1(C)S[C@@H]2[C@H](NC(=O)[C@H](N)c3ccccc3)C(=O)N2[C@H]1C(=O)O [AMPICILLIN] |  |  |  |  | 22 (≈ 63 µM) | 22 (≈ 63 µM) |  |  |  |  |  |  |  |
| COc1cc([C@@H]2c3cc4c(cc3[C@@H](O[C@@H]3O[C@@H]5CO[C@@H](C)O[C@H]5[C@H](O)[C@H]3O)[C@H]3COC(=O)[C@H]23)OCO4)cc(OC)c1O [ETOPOSIDE] | 5.62 | 5.01 | 5.13 | 4.98 |  |  |  |  |  |  |  |  |  |
| O=S(=O)(C1CC1)N1CCCN(c2ccn3cc(-c4ccc(F)cc4)nc3n2)CC1 | < 3.52 | 4.39 | 4.47 | < 3.52 | 48.4 (≈ 116 µM) | 64.6 (≈ 155 µM) | 34.6 (≈ 83.3 µM) | 28.2 (≈ 67.9 µM) | 14.6 (≈ 35.1 µM) |  |  |  |  |
| CC(=O)N1CCCN(c2ccn3cc(-c4ccc(F)cc4)nc3n2)CC1 | 3.98 | < 3.52 | 3.66 | 3.99 | 84.2 (≈ 238 µM) | > 100 | 0.92 (≈ 2.6 µM) | 12.6 (≈ 35.7 µM) | 9.8 (≈ 27.7 µM) |  |  |  |  |
| CN(C)C(=O)N1CCCN(c2ccn3cc(-c4ccc(F)cc4)nc3n2)CC1 | 4.15 | 4.97 | < 3.52 | 5.22 | 18.6 (≈ 48.6 µM) | 15.8 (≈ 41.3 µM) | 0.86 (≈ 2.25 µM) | 1.8 (≈ 4.71 µM) | 4.6 (≈ 12 µM) |  |  |  |  |
| O=S(=O)(c1ccc(F)cc1F)N1CCCN(c2ccn3cc(-c4ccc(F)cc4)nc3n2)CC1 | 5.00 | < 3.52 | < 3.52 | < 3.52 | 8.8 (≈ 18.1 µM) | 10.4 (≈ 21.3 µM) | 4.6 (≈ 9.44 µM) | 5.2 (≈ 10.7 µM) | > 100 |  |  |  |  |
| O=C(C1CCCCC1)N1CCCN(c2ccn3cc(-c4ccc(F)cc4)nc3n2)CC1 | 4.84 | 3.74 | 3.77 | 3.98 | > 100 | > 100 | > 100 | 44.2 (≈ 105 µM) | > 100 |  |  |  |  |
| O=C(Cc1ccccc1)N1CCCN(c2ccn3cc(-c4ccc(F)cc4)nc3n2)CC1 | 4.76 | < 3.52 | < 3.52 | 3.58 | 38.6 (≈ 89.9 µM) | 34.2 (≈ 79.6 µM) | 8.4 (≈ 19.6 µM) | 10.2 (≈ 23.7 µM) | > 100 |  |  |  |  |
| N#Cc1ccc(S(=O)(=O)N2CCCN(c3ccn4cc(-c5ccc(F)cc5)nc4n3)CC2)cc1 | 4.65 | < 3.52 | < 3.52 | < 3.52 | 24.8 (≈ 52 µM) | 21.7 (≈ 45.5 µM) | 58.6 (≈ 123 µM) | 34.2 (≈ 71.8 µM) | 68.1 (≈ 143 µM) |  |  |  |  |
| COc1ccc(S(=O)(=O)N2CCCN(c3ccn4cc(-c5ccc(F)cc5)nc4n3)CC2)cc1 | < 3.52 | < 3.52 | < 3.52 | 3.69 | 12.8 (≈ 26.6 µM) | 14.6 (≈ 30.3 µM) | > 100 | 88.2 (≈ 183 µM) | 9.4 (≈ 19.5 µM) |  |  |  |  |
| C[C@@H]1[C@H](O)[C@@H](C)/C=C/C=C/C=C/C=C/C=C/C=C/C=C/[C@H](O[C@@H]2O[C@H](C)[C@@H](O)[C@H](N)[C@@H]2O)C[C@@H]2O[C@](O)(C[C@@H](O)C[C@@H](O)[C@H](O)CC[C@@H](O)C[C@@H](O)CC(=O)O[C@H]1C)C[C@H](O)[C@H]2C(=O)O [AMPHOTERICIN B] |  |  |  |  |  |  |  |  | 8 (≈ 8.66 µM) |  |  |  |  |
| O=C(Cc1cccs1)N1CCCN(c2ccn3cc(-c4ccc(F)cc4)nc3n2)CC1 | 4.73 | 4.18 | < 3.52 | < 3.52 | 44.2 (≈ 101 µM) | 38.6 (≈ 88.6 µM) | 3.1 (≈ 7.12 µM) | 3.1 (≈ 7.12 µM) | 5.6 (≈ 12.9 µM) |  |  |  |  |
| CN(C)S(=O)(=O)N1CCCN(c2ccn3cc(-c4ccc(F)cc4)nc3n2)CC1 | < 3.52 | < 3.52 | < 3.52 | 4.52 | 9.6 (≈ 22.9 µM) | 10.2 (≈ 24.4 µM) | 1.4 (≈ 3.35 µM) | 3.8 (≈ 9.08 µM) | 8.2 (≈ 19.6 µM) |  |  |  |  |
| O=C(C1CC1)N1CCCN(c2ccn3cc(-c4ccc(F)cc4)nc3n2)CC1 | 4.72 | < 3.52 | < 3.52 | 3.84 | 88.6 (≈ 234 µM) | 92.4 (≈ 244 µM) | 94.7 (≈ 250 µM) | > 100 | > 100 |  |  |  |  |
| O=C(c1ccc(F)cc1)N1CCCN(c2ccn3cc(-c4ccc(F)cc4)nc3n2)CC1 | 4.90 | < 3.52 | 5.21 | 3.71 | 34.4 (≈ 79.4 µM) | 36.7 (≈ 84.7 µM) | 22.8 (≈ 52.6 µM) | 38.2 (≈ 88.1 µM) | 74.2 (≈ 171 µM) |  | 1.31 |  |  |
